Reference: the METLIN SMRT retention time set (Domingo-Almenara et al. 2019)

Assay: gradient 5% acetonitrile 3 min, to 50% in 2 min, to 85% in 15 min, held 3 min, 100 µL/min
Conditions: column: Zorbax Extend-C18 2.1 x 50 mm; eluents: water / acetonitrile, 0.1% formic acid
How it was run: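 In both positive and negative ionization mode, a quadrupole time-of-flight mass spectrometer coupled to HPLC analyzed pure standards run in mixtures of ~100 molecules. The Zorbax Extend-C18 column (2.1 × 50 mm, 1.8 μm) was operated at 100 μL/min with water and acetonitrile, each containing 0.1% formic acid. The dead volume was 40 μL and the dwell volume 900 μL. Retention time came from adduct peaks that were computationally picked and individually inspected by hand.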

Point of comparison: COc1ccc(S(=O)(=O)NCc2ccc3c(c2)CCN3C(=O)C(C)C)cc1OC, RP-LC retention time 803 s. Against it:
- Cc1ccccc1CNC(=O)c1nnc(-c2ccc(S(=O)(=O)N3CCC(C)CC3)cc2)o1 — higher, 1100 s
- CCN(CC)CCCNc1ccc(-c2nc(-c3ccc(OC)cc3)no2)cn1 — lower, 681 s
- Cc1cccc(Nc2c(-c3ccc(N(C)C)cc3)nc3cnccn23)c1C — higher, 900 s
- O=C(Nc1cccnc1)C1CCN(S(=O)(=O)c2cccnc2)CC1 — lower, 591 s
- Fc1ccc(C2Cn3nnc(-c4nc(-c5ccccn5)no4)c3CO2)cc1 (stereo unspecified) — higher, 854 s
- O=C(CN1C(=O)C(C(=O)N2CCCC2)Sc2ccccc21)Nc1cccc(Cl)c1 (stereo unspecified) — higher, 1080 s
- CCn1cnnc1C1CCCCN1S(=O)(=O)c1ccc(C#N)cc1 (stereo unspecified) — lower, 695 s
- CCn1c(=O)c2c(cc(C)n2C)n(CC(=O)Nc2ccc(F)cc2)c1=O — lower, 780 s
- Cc1ccc(S(=O)(=O)Nc2ccc(-c3cn4cccc(C)c4n3)cc2)cc1C — lower, 625 s
- Cc1ccc(F)cc1NC(=O)c1cc(C2CC2)n2nccc2n1 — higher, 1140 s
- CC1=C(c2ccccc2)S(=O)(=O)N=C1N1CCCN(C(=O)CCC2CCCC2)CC1 — higher, 946 s
- Cc1ccc(C)c(C(=O)Nc2ccc3c(c2)Sc2ncccc2C(=O)N3C)c1 — higher, 888 s
- CN(C)c1ccc(-c2noc(-c3nc(-c4ccccc4F)no3)n2)cc1 — higher, 1250 s
- COC(=O)c1ccc(NC(=O)C2CCCN(c3ncnc4c3nc3n4CCCCC3)C2)cc1 (stereo unspecified) — higher, 808 s
- CCOC(=O)c1sc(NC(=O)Cn2nc3c(cc2=O)CCCCC3)nc1C — higher, 853 s
- COc1ccc2c(c1)C1(CCN(C(=O)c3cccs3)C1)C(=O)N2C (stereo unspecified) — lower, 738 s
- CC(C)CCNC(=O)C1(C)Cn2nc(C(=O)NCc3ccccc3F)cc2C(=O)N1C (stereo unspecified) — lower, 763 s
- COC(=O)c1cncc(C)c1 — lower, 662 s
- O=C(NCCN1CCCCCC1)C1CCCN(c2ncc(-c3ccc(F)cc3)cn2)C1 (stereo unspecified) — lower, 715 s
- Cc1c(-c2noc(-c3ccccc3F)n2)nnn1Cc1ccccc1 — higher, 1030 s
- COc1cccc(S(=O)(=O)N2C[C@@H](F)C[C@H]2C(=O)N2CCOCC2)c1 — lower, 676 s
- O=S(=O)(NCCc1ccccc1)c1ccccc1-c1nc(-c2ccccc2)no1 — higher, 1210 s
- Cc1nnc(-c2cc(C)n(CC(=O)Nc3ccc(C)c(Cl)c3)c2C)o1 — higher, 852 s
- CN(C)CCNC(=O)c1c(-c2ccccc2)c(-c2ccccc2)nn(C)c1=O — lower, 628 s
- CC1=NS(=O)(=O)N(Cc2ccccc2)C=C1C(=O)OCc1ccc(C(C)(C)C)cc1 — higher, 1320 s
- COc1ccc2[nH]cc(CCNC(=O)CN3C(=O)c4cccnc4Sc4ccccc43)c2c1 — lower, 734 s
- O=C(NCCc1ccccc1)C1CN(S(=O)(=O)c2cccnc2)CC12CCCCC2 (stereo unspecified) — higher, 895 s
- O=C1C(OC2CCN(S(=O)(=O)c3ccccc3Cl)CC2)CCN1CC1CC1 (stereo unspecified) — higher, 870 s
- CCCCC(=O)Nc1nc(-c2ccc3c(c2)N(C)C(=O)CO3)c(C)s1 — higher, 925 s
- Cc1nnsc1C(=O)N1CCC(C(=O)Nc2nccs2)CC1 — lower, 625 s
- CCCn1cc(S(=O)(=O)Nc2ccc(F)cc2Cl)c2cccnc21 — higher, 989 s
- C=Cc1ccc(CSc2ccc(-n3nc4c(c3C)CCC4)nn2)cc1 — higher, 1070 s
- CCN1CCCn2cc(S(=O)(=O)Nc3ccc(Cl)cc3)cc2C1=O — lower, 765 s
- COCc1noc([C@@H]2CC(F)(F)CN2C(=O)CC(C)(C)C)n1 — higher, 830 s
- CC(C)c1ccc(S(=O)(=O)N2CCCC2c2nc(-c3ccccc3)no2)cc1 (stereo unspecified) — higher, 1250 s
- Cc1cc(F)ccc1NC(=O)C1CCN(C(=O)C2Sc3ccccc3NC2=O)CC1 (stereo unspecified) — lower, 738 s
- O=C(Cn1ccc2c(SCc3ccc(F)cc3)nccc21)NCc1ccc(N2CCOCC2)cc1 — lower, 706 s
- Cc1cc(C)n(-c2ccc(C(=O)NC3CCC(C)CC3)cn2)n1 (stereo unspecified) — higher, 1010 s
- CCc1nc(-c2cc(S(=O)(=O)Nc3ccc(F)cc3F)c(C)s2)cs1 — higher, 994 s
- C=CCNc1c(C(=O)OC)c(=O)[nH]c2c(Cl)cccc12 — lower, 700 s
- Cc1cc(C)cc(-c2nnc(Cc3nc(-c4cccc(F)c4)no3)o2)c1 — higher, 1150 s
- Clc1ccc(-c2nc(NC3CCCC3)c3ccccc3n2)cc1 — higher, 887 s
- CN(C)CCNC(=O)C1CCCN(c2ncnc3c2nc2n3CCCCC2)C1 (stereo unspecified) — lower, 573 s
- O=C(Nc1ccc(Br)cc1F)C1CCCN(S(=O)(=O)Cc2ccc(F)cc2)C1 (stereo unspecified) — higher, 1040 s
- CC(C)n1c(=O)c2ccccc2n(Cc2nc(-c3ccc(F)cc3)no2)c1=O — higher, 1110 s
- Cc1ccc(-c2ccc(-n3nc(C)c(S(=O)(=O)N4CCC(C)CC4)c3C)nn2)cc1 — higher, 1260 s
- Cc1ccc(-n2nnc(-c3noc(C)n3)c2C)cc1 — higher, 836 s
- CC1=C(c2ccc(Cl)cc2)S(=O)(=O)N=C1N1CCC(NC(=O)C2CCCO2)CC1 (stereo unspecified) — lower, 779 s
- O=C(CC1C=Cc2ccccc2N1C(=O)c1ccccc1)c1ccccc1 (stereo unspecified) — higher, 1270 s
- Cc1cc2c(cc1S(=O)(=O)N1CCCC1C(=O)Nc1ccc(F)c(Cl)c1)OCC(=O)N2 (stereo unspecified) — higher, 965 s
- COc1ccc(NC(=O)CSc2cc(N3CCN(c4ccccc4F)CC3)ncn2)cc1 — higher, 1010 s
- CCN1C(=O)COc2ccc(-c3noc(-c4cccc(NC(C)=O)c4)n3)cc21 — higher, 848 s
- Cc1ccc(N2C(=O)CN(S(C)(=O)=O)CC2(C)C(=O)NCc2ccc(F)cc2)c(C)c1 (stereo unspecified) — higher, 834 s
- Cc1cccc(NC(=O)COc2cccc3c(=O)n(C)ccc23)c1 — lower, 798 s
- CN1CC(=O)N(CC(=O)Nc2ccc(OC(F)(F)F)cc2)c2ccccc2C1=O — lower, 777 s
- O=C(CCSc1ccc(F)cc1)Nc1ccccc1-c1nc2ccccc2[nH]1 — higher, 939 s
- Cc1cc(Cl)ccc1S(=O)(=O)N1C[C@H](F)C[C@@H]1C(=O)N1CCOCC1 — lower, 762 s
- Cn1nc(-c2ccccc2)c2ccccc2c1=O — lower, 799 s
- CCc1ccc(NC(=O)Cn2nc3c(N4CCSCC4)nccn3c2=O)cc1 — higher, 888 s
- CCOc1ccc(NC(=O)c2cc(S(=O)(=O)N3CCC(C)CC3)cn2C)cc1 — higher, 1070 s
- COc1cccc(-c2noc(CN3C(=O)COc4cc(Cl)ccc43)n2)c1OC — higher, 1020 s
- O=C(Nc1ccc2c(c1)OCO2)c1cccc2c1CCN2C(=O)Nc1ccc(F)cc1 — higher, 929 s
- Cc1ccc(-n2c(N3CCC(C(=O)NC(C)c4ccc(F)cc4)CC3)nc3ccsc3c2=O)cc1 (stereo unspecified) — higher, 1010 s
- Cn1nc(-c2nc(-c3ccc(F)cc3)no2)c2c1CCN(C(=O)NC1CCCCC1)C2 — higher, 979 s
- Cc1ccc(C(=O)N2CCC3(CC2)NC(=O)c2cc(C)ccc2N3C)cc1 — higher, 805 s
